Article PMC3931418 (Nature, 2014)

Target: BRIL-δOR(ΔN/ΔC) (Sf9) (Homo sapiens, UniProt P41143, P37S)
Format: binding

Sequence of BRIL-δOR(ΔN/ΔC) (Sf9) (P41143 36-338 P37S): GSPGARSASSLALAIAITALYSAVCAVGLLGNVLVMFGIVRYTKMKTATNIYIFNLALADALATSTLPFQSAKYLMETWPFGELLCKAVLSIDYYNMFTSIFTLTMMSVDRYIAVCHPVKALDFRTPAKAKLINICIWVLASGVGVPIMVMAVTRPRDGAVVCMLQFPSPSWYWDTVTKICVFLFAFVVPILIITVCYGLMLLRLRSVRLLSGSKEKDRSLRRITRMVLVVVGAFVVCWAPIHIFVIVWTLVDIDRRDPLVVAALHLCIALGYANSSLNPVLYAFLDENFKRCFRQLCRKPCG

[Na+] [sodium]
Hill Coefficient: 0.79 ± 0.02
Na+ pKB ± SEM: 1.79 ± 0.11
pα ± SEM: 0.86 ± 0.05
α: 0.138
Kb (read-out: Na+ KB): 15.9 mM
